Source: PubChem BioAssay (NCI)
Several values for one entry are separate records, joined by “and”; a condition that tells them apart may be missing. Identical values can stand only once.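 Cells were grown in 96-well plates and exposed to each compound for 48 hours at five concentrations; endpoints were interpolated linearly between bracketing concentrations, or set to the highest concentration if not reached. Here, GI50 denotes the concentration required for 50% inhibition of growth. At the TGI there is no net growth.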

What was measured:
Assay in all cases: NCI tumour cell line growth inhibition, 48 h
[1] = test system: HCT-116 colon
[2] = test system: OVCAR-8 ovarian
[3] = test system: A549 NSCLC
[4] = test system: LOX IMVI melanoma
[5] = test system: RPMI-8226 leukemia
[6] = test system: HCT-15 colon
[7] = test system: KM12 colon
[8] = test system: UO-31 renal

Structure (SMILES): Cc1[nH]nc(C(F)(F)F)c1N=NN(C)C
- TGI [1]: 4.99 µM
- TGI [2]: 24.6 µM
- TGI [3]: > 100 µM
- TGI [4]: > 100 µM
- TGI [5]: 5.15 µM
- TGI [6]: 24.4 µM
- TGI [7]: 29.3 µM
- TGI [8]: 5.03 µM

Structure (SMILES): Cn1c(-c2c(N)n(Nc3cccc(Cl)c3)c3nc(C#N)c(C#N)nc23)nc2ccccc21
- GI50 [1]: 8.54 µM
- TGI [1]: > 50 µM
- GI50 [2]: 7.56 µM
- TGI [2]: 26.4 µM
- GI50 [3]: 10.9 µM
- TGI [3]: 35.4 µM
- GI50 [4]: 5.25 µM
- TGI [4]: 11.5 µM
- GI50 [5]: 3.53 µM
- TGI [5]: > 50 µM
- GI50 [6]: 3.45 µM
- TGI [6]: 17.2 µM
- GI50 [7]: 9.57 µM
- TGI [7]: 26.1 µM
- GI50 [8]: 3.74 µM
- TGI [8]: 11.3 µM

Structure (SMILES): COc1cc2ncn(-c3cc(OCc4ccccc4C(F)(F)F)c(C(=O)N(C)C)s3)c2cc1OC
- GI50 [1]: > 25 µM
- TGI [1]: > 25 µM
- GI50 [2]: 17.7 µM
- TGI [2]: > 25 µM
- GI50 [3]: 24.9 µM
- TGI [3]: > 25 µM
- GI50 [4]: > 25 µM
- TGI [4]: > 25 µM
- GI50 [5]: > 25 µM
- TGI [5]: > 25 µM
- GI50 [6]: > 25 µM
- TGI [6]: > 25 µM
- GI50 [7]: > 25 µM
- TGI [7]: > 25 µM
- GI50 [8]: 9.69 µM
- TGI [8]: > 25 µM

Structure (SMILES): CCOC(=O)C(Cc1c[nH]c2c(N(CCO)CCO)cccc12)(NC(C)=O)C(=O)OCC
- GI50 [1]: 412 µM
- TGI [1]: > 1000 µM
- GI50 [2]: > 1000 µM
- TGI [2]: > 1000 µM
- GI50 [3]: > 1000 µM
- TGI [3]: > 1000 µM
- GI50 [4]: 141 µM
- TGI [4]: 283 µM
- GI50 [6]: 182 µM
- TGI [6]: > 1000 µM
- GI50 [7]: 302 µM
- TGI [7]: 978 µM
- GI50 [8]: > 1000 µM
- TGI [8]: > 1000 µM

Structure (SMILES): O=c1c2cc(F)ccc2sc2c(N3CCNCC3)nc3ccc(F)cc3c12
- GI50 [1]: 1.63 µM
- TGI [1]: 3.21 µM
- GI50 [4]: 1.62 µM
- TGI [4]: 3.16 µM
- GI50 [5]: 2.16 µM
- TGI [5]: 4.89 µM
- GI50 [6]: 1.44 µM
- TGI [6]: 2.84 µM
- GI50 [7]: 1.79 µM
- TGI [7]: 3.34 µM
- GI50 [8]: 1.31 µM
- TGI [8]: 2.6 µM

Structure (SMILES): CC[n+]1oc(C(=O)c2ccc(Cl)cc2)c(-c2ccccc2)c1-c1ccccc1.[Cl][Fe]([Cl])([Cl])[Cl]
- GI50 [2]: 45.5 µM
- TGI [2]: > 100 µM
- GI50 [3]: 22.1 µM
- TGI [3]: 68 µM
- GI50 [4]: 1.82 µM
- TGI [4]: > 100 µM
- GI50 [5]: 19.6 µM
- TGI [5]: 54.2 µM
- GI50 [6]: 72.6 µM
- TGI [6]: > 100 µM
- GI50 [7]: 89.9 µM
- TGI [7]: > 100 µM
- GI50 [8]: 2.23 µM
- TGI [8]: 21.5 µM

Structure (SMILES): COc1ccc(S(=O)(=O)N2CCN(C(=O)c3ccc(-c4ccccc4)cc3)CC2C(=O)NO)cc1 (configuration not stated)
- GI50 [1]: 2.92 µM and 25.5 µM
- TGI [2]: 12.5 µM and > 100 µM
- GI50 [3]: 8.47 µM and 30.7 µM
- TGI [3]: 12.5 µM and 82.2 µM
- GI50 [5]: > 100 µM
- TGI [5]: > 100 µM
- TGI [6]: 12.5 µM and > 100 µM
- TGI [8]: 10.4 µM and > 100 µM

Structure (SMILES): O=S(=O)(NCCNc1nccc(-c2c(-c3ccc(F)c(O)c3)nc3sccn23)n1)c1ccc(F)cc1
- GI50 [2]: 4.25 µM
- TGI [2]: 48 µM
- GI50 [3]: 3.63 µM
- TGI [3]: 58 µM
- GI50 [4]: 0.675 µM
- TGI [4]: 18 µM
- GI50 [5]: 1.78 µM
- TGI [5]: 4.24 µM
- GI50 [6]: 3.25 µM
- TGI [6]: 52.6 µM
- GI50 [7]: 2.89 µM
- TGI [7]: 14.6 µM
- GI50 [8]: 4.02 µM
- TGI [8]: 15.1 µM
